The results in this text go back to ChEMBL document CHEMBL3045477, “Dysfunctionality of the xylem in Olea europaea L. Plants associated with the infection process by Verticillium dahliae Kleb. Role of phenolic compounds in plant defense mechanism” (J Agric Food Chem, 2007).

The structures appear in SMILES notation. Converted amounts (≈) assume the structure as drawn.

In the assay the test system is Verticillium dahliae. Description: Antifungal activity against Verticillium dahliae assessed as inhibition of mycelial radial growth measured after 350 hr. In kind it is functional, organism-based.

Usually IC50 stands for the concentration needed to halve the response being measured. With `Oc1cc(O)c2c(c1)OC(c1ccc(O)c(O)c1)C(O)C2` (stereo not drawn) [CATECHIN], the concentration for half-maximal inhibition (IC50) was determined as 2100 µg/mL (≈ 7230 µM). The same measure for `O=C(O)/C=C/c1ccc(O)cc1` [COUMARIC ACID]: 1470 µg/mL (≈ 8950 µM); for `O=c1cc(-c2ccc(O)c(O)c2)oc2cc(O[C@@H]3O[C@H](CO)[C@@H](O)[C@H](O)[C@H]3O)cc(O)c12` [GALUTEOLIN]: 260 µg/mL (≈ 580 µM); for `O=c1cc(-c2ccc(O)c(O)c2)oc2cc(O)cc(O)c12` [LUTEOLIN]: 7 µg/mL (≈ 24.5 µM).

For `C/C=C1/[C@H](O[C@@H]2O[C@H](CO)[C@@H](O)[C@H](O)[C@H]2O)OC=C(C(=O)OC)[C@H]1CC(=O)OCCc1ccc(O)c(O)c1` [OLEUROPEIN], the half-maximal inhibitory concentration (IC50) is 170 µg/mL (≈ 315 µM). The same measure for `O=c1c(O)c(-c2ccc(O)c(O)c2)oc2cc(O)cc(O)c12` [QUERCETIN]: 6 µg/mL (≈ 19.9 µM); for `C[C@@H]1O[C@@H](OC[C@H]2O[C@@H](Oc3c(-c4ccc(O)c(O)c4)oc4cc(O)cc(O)c4c3=O)[C@H](O)[C@@H](O)[C@@H]2O)[C@H](O)[C@H](O)[C@H]1O` [RUTIN]: 80 µg/mL (≈ 131 µM).

As to `OCCc1ccc(O)cc1` [TYROSOL], the 50% inhibitory concentration (IC50) worked out at 660 µg/mL (≈ 4780 µM).
